Measured values taken from patent US20210015883A1, “A NOVEL SYNERGIC HERBAL FORMULATION FOR THE PREVENTION AND TREATMENT OF PRE-DIABETES, DIABETES AND OTHER INSULIN RESISTANCE CASES” (priority 2018, published 2021).

Experiments:
[1] = test system: high fat diet and Streptozotocin (stz) induced insulin resistance in rats; experiment: Fasting blood glucose levels in high fat diet + STZ rats; type: in vivo, Albino Wistar rats
Experimental: (§1) Evaluation of antidiabetic effect of herbal formulation against high fat diet and Streptozotocin (stz) induced insulin resistance in rats.
(§2) Rats were divided 5 into groups of 8 rats each and treated in the following way:
Group I Normal control group—Received normal chow diet and drinking water daily for 45 days and citrate buffer (1 mL/kg, i.p) on the 15th day of start of experiment.
Group II Toxicant Control: Received HFD throughout the experiment (45 days) and STZ (40 mg/kg, i.p) on the 15th day of start of experiment.
(§3) Group III Herbal formulation I as per Example 4 (500 mg): Received HFD throughout the experiment (45 days), STZ (40 mg/kg, i.p) on the 15th day of start of experiment and the Herbal formulation (500 mg/kg, p.o) from the 18th day for the next 28 days.
(§4) Group IV Herbal formulation II as per Example 4 (1000 mg): Received HFD throughout the experiment (45 days), STZ (40 mg/kg, i.p) on the 15th day of start of experiment and the Herbal formulation (1000 mg/kg, p.o) from the 18th day for the next 28 days.
(§5) Group V Reference standard: Receive HFD throughout the experiment (45 days), STZ (40 mg/kg, i.p) on the 15th day of start of experiment and Metformin, (120 mg/kg) from the 18th day for the next 28 days.
(§6) The rats were allocated into dietary regimens by feeding HFD (58% fat, 25% protein and 17% carbohydrate, as a percentage of total kcal) and drinking water ad libitum, respectively, for the initial period of 2 weeks. After 2 weeks of dietary manipulation, the group of rats fed with HFD were injected a single low dose of STZ (40 mg/kg, i.p), while the Normal control rats were given the vehicle citrate buffer (pH 4.4) in a dose volume of 1 mL/kg, i.p. The fasting blood glucose (FBG) were measured 3 days after the STZ injection. The rats with FBG of more than 250 mg/dL were considered diabetic and selected for further pharmacological studies and their dosing with the Herbal formulations commenced and continued for the next 28 days. The rats were allowed to continue to feed on their respective diets until the end of the study. All FBG and insulin levels were determined on different days viz. 18th day (3rd day after STZ injection), 25th, 32nd, 39th and 45th days (24 h after the previous dose) by collecting blood from the tail vein/retro orbital plexus. On the 44th day Oral Glucose Tolerance Test (OGTT) was performed wherein animals of all groups received glucose solution (1.5 g/kg) 30 minutes after the above treatments. Blood glucose and insulin levels were determined at 0, 30, 60, 90, 120 min after glucose administration. Blood glucose levels were measured using a digital glucometer. Insulin was assayed by using a RIA kit.
(§7) √—Correction of the nonlinear values distribution. • A. Animals used: 40 • B. Species/Common name: Albino Wistar rats • C. Age/weight/size: Ten weeks, 150-180 g • D. Gender: Male • E. Number to be used (Year-wise breakups and total figures needed to be given): 40 • F. Number of days each animal will be housed: 3 months • G. Details of injections schedule: • H. Details of withdrawal: • Volumes: 2 mL per animal by retro-orbital plexus for insulin assay and 0.1 mL by tail vein for blood glucose. • I. Sites: Retro-orbital plexus, tail vein

[2] = test system: high fat diet and Streptozotocin (stz) induced insulin resistance in rats; experiment: Insulin levels in high fat diet + STZ rats (RIA); type: in vivo, Albino Wistar rats; details: HFD+STZ rats
Experimental: as §1, §2, §3, §4, §5, §6, §7

[3] = test system: high fat diet and Streptozotocin (stz) induced insulin resistance in rats; experiment: Oral glucose tolerance test (OGTT) on day 44 in high fat diet + STZ rats; type: in vivo, Albino Wistar rats; details: Metformin 120 mg/kg p.o., HFD+STZ rats
Experimental: as §1, §3, §4, §5, §6, §7

[4] = test system: high fat diet and Streptozotocin (stz) induced insulin resistance in rats; experiment: HOMA-IR insulin resistance index in high fat diet + STZ rats; type: in vivo, Albino Wistar rats; details: HFD+STZ rats
Experimental: as §6, with “After” for “The rats were allocated into dietary regimens by feeding HFD (58% fat, 25% protein and 17% carbohydrate, as a percentage of total kcal) and drinking water ad libitum, respectively, for the initial period of 2 weeks. After”, “The rats with FBG of more than 250 mg/dL were considered diabetic and selected for further pharmacological studies and their dosing with the Herbal formulations commenced and continued for the next 28 days.” left out
Insulin resistance is calculated using the following methods: […]
HOMA is a model of the relationship of glucose and insulin dynamics that predicts fasting steady-state glucose and insulin concentrations for a wide range of possible combinations of insulin resistance and β-cell function. Insulin levels depend on the pancreatic β-cell response to glucose concentrations while, glucose concentrations are regulated by insulin-mediated glucose production via the liver. Thus, deficient β-cell function will echo a diminished response of β-cell to glucose-stimulated insulin secretion. Similarly, insulin resistance is reflected by the diminished suppressive effect of insulin on hepatic glucose production. […] HOMA describes this glucose-insulin homeostasis by means of a set of simple, mathematically-derived nonlinear equations. The approximating equation for insulin resistance has been simplified; it uses a fasting blood sample. It is derived from the use of the insulin-glucose product, divided by a constant.
The product of FPG×FPI is an index of hepatic insulin resistance.
I0—Fasting plasma insulin concentration (mIU/L), G0—Fasting plasma glucose concentration (mg/dL),

[5] = test system: high fat diet and Streptozotocin (stz) induced insulin resistance in rats; experiment: QUICKI insulin sensitivity index in high fat diet + STZ rats; type: in vivo, Albino Wistar rats; details: HFD+STZ rats
Experimental: as §6
Quantitative insulin sensitivity check index (QUICKI) is an empirically-derived mathematical transformation of fasting blood glucose and plasma insulin concentrations that provide a consistent and precise ISI with a better positive predictive power. It is simply a variation of HOMA equations, as it transforms the data by taking both the logarithm and the reciprocal of the glucose-insulin product, thus slightly skewing the distribution of fasting insulin values. […] It employs the use of fasting values of insulin and glucose as in HOMA calculations. QUICKI is virtually identical to the simple equation form of the HOMA model in all aspects, except that a log transform of the insulin glucose product is employed to calculate QUICKI. The QUICKI can be determined from fasting plasma glucose (mg/dl) and insulin (μIU/ml) concentrations.
QUICKI values range between 0.45 in healthy individuals (noted as unusually healthy in the original study) and 0.30 in diabetics. Lower values reflect greater resistance with values below 0.339 indicating insulin resistance.

[6] = test system: high fat diet and Streptozotocin (stz) induced insulin resistance in rats; experiment: Matsuda index from OGTT in high fat diet + STZ rats; type: in vivo, Albino Wistar rats; details: Metformin 120 mg/kg p.o., HFD+STZ rats, value less than 4.3 indicates insulin resistance
Experimental: as §6, with “After” for “The rats were allocated into dietary regimens by feeding HFD (58% fat, 25% protein and 17% carbohydrate, as a percentage of total kcal) and drinking water ad libitum, respectively, for the initial period of 2 weeks. After”, “The rats with FBG of more than 250 mg/dL were considered diabetic and selected for further pharmacological studies and their dosing with the Herbal formulations commenced and continued for the next 28 days.” left out

[7] = test system: PPAR gamma; experiment: PPAR gamma gene expression by Real Time PCR in differentiated 3T3L1 adipocytes; type: cell-based; details: SC = Pioglitazone 6 μg/ml, 12th day, control = 1
Experimental: Samples of Herbal formulation were evaluated over a concentration range from 0.5 to 10 μg/ml. Pioglitazone, a known anti-diabetic agent was used as the standard control at a dose of 6 μg/ml; a dose extrapolated from the median therapeutic human dose. The Herbal formulation was dissolved in NAOH (0.1N).
Viability studies were carried out to eliminate cytotoxic concentrations of the samples using MTT assay. Based on the results of the MTT assay, the following concentrations were used for the PPAR Expression studies. Concentration selected was as follows 2.5, 5, 10 μg/ml.
3T3L1 Fibroblasts were grown in DMEM medium, supplemented with 10% FBS, in a humidified atmosphere of 5% CO2 at 370 C. […]
On the 12th day after differentiation, total RNA was extracted with TRIzol reagent according to the manufacturer's instructions from the differentiated adipocytes. The concentration and purity of RNA were determined by measuring the absorbance at 260 nm (A260) and the ratio of the absorbance at 260 nm to the absorbance at 280 nm (A260/A280), respectively. […] SYBR Green chemistry was used to perform the quantitative determination of the relative expression of PPAR gene. The PPAR gene was analyzed using the Rotogene Q; Qiagen real-time polymerase chain reaction machine. […]

[8] = Metformin 120 mg/kg p.o., Day 25
[9] = Metformin 120 mg/kg p.o., Day 32
[10] = Metformin 120 mg/kg p.o., Day 39
[11] = Metformin 120 mg/kg p.o., Day 45
[12] = Metformin 120 mg/kg p.o. group, Day 18 (start of treatment)

CN(C)C(=N)N=C(N)N [Metformin]
course of BGL over 4 weeks of treatment (in words) ([1]; HFD+STZ rats): gradual decrease in BGL | Blood glucose level ([1]; Metformin 120 mg/kg p.o. group, HFD+STZ rats, Day 1 (before treatment, dosing from day 18)): 126.87 ± 2.41 mg/dL | Blood glucose level ([1]; Metformin 120 mg/kg p.o. group, HFD+STZ rats, Day 7 (before treatment)): 138.63 ± 1.54 mg/dL | Blood glucose level ([1]; Metformin 120 mg/kg p.o. group, HFD+STZ rats, Day 15 (before treatment)): 156.37 ± 3.17 mg/dL | Blood glucose level ([1]; Metformin 120 mg/kg p.o. group, HFD+STZ rats, Day 18 (3rd day after STZ, start of treatment)): 396.67 ± 43.72 mg/dL | Blood glucose level ([1]; Metformin 120 mg/kg p.o., HFD+STZ rats, Day 25): 183.167 ± 13.58 mg/dL | Blood glucose level ([1]; Metformin 120 mg/kg p.o., HFD+STZ rats, Day 32): 245.167 ± 28.86 mg/dL | Blood glucose level ([1]; Metformin 120 mg/kg p.o., HFD+STZ rats, Day 39): 191.83 ± 25.08 mg/dL | Blood glucose level ([1]; Metformin 120 mg/kg p.o., HFD+STZ rats, Day 45): 152.83 ± 8.40 mg/dL | BGL at the end of the study compared with the HFD+STZ group (in words) ([1]; treatment groups): significantly lower | Insulin level ([2]; Metformin 120 mg/kg p.o. group, date printed as "—" (first reading)): 31.56 ± 1.95 mIU/L | Insulin level [2, 8]: 22.56 ± 2.24 mIU/L | Insulin level [2, 9]: 27.84 ± 5.014 mIU/L | Insulin level [2, 10]: 23.40 ± 3.47 mIU/L | Insulin level [2, 11]: 15.36 ± 0.58 mIU/L | OGTT Glucose ([3]; 0 Min after glucose 1.5 g/kg): 129.5 ± 1.17 mg/dL | OGTT Insulin ([3]; 0 Min after glucose 1.5 g/kg): 13.12 ± 0.97 mIU/L | OGTT Glucose ([3]; 30 Min after glucose 1.5 g/kg): 249.50 ± 0.56 mg/dL | OGTT Insulin ([3]; 30 Min after glucose 1.5 g/kg): 27.308 ± 1.4 mIU/L | OGTT Glucose ([3]; 90 Min after glucose 1.5 g/kg): 185.167 ± 2.08 mg/dL | OGTT Insulin ([3]; 90 Min after glucose 1.5 g/kg): 22.72 ± 1.49 mIU/L | OGTT Glucose ([3]; 120 Min after glucose 1.5 g/kg): 149.83 ± 2.81 mg/dL | OGTT Insulin ([3]; 120 Min after glucose 1.5 g/kg): 14.95 ± 1.035 mIU/L | HOMA-IR [4, 12]: 31.7 ± 4.75 | HOMA-IR [4, 8]: 9.91 ± 0.69 | HOMA-IR [4, 9]: 15.8 ± 2.76 | HOMA-IR [4, 10]: 10.56 ± 1.7 | HOMA-IR [4, 11]: 5.81 ± 0.39 | QUICKI [5, 12]: 0.24 ± 0.0057 | QUICKI [5, 8]: 0.276 ± 0.0021 | QUICKI [5, 9]: 0.26 ± 0.0042 | QUICKI [5, 10]: 0.27 ± 0.0055 | QUICKI [5, 11]: 0.29 ± 0.0030 | Matsuda Index [6]: 12.56

CCc1ccc(CCOc2ccc(CC3SC(=O)NC3=O)cc2)nc1 (centres unmarked) [Pioglitazone]
2^-DDCT (relative PPAR gamma mRNA expression) [7]: 2.292
